Laboratory results from the supplement of paper PMC4862054.

Columns and labels:
Details in all cases: incubation time: 72 h
[1] = test system: CAL-51; assay: normalised response (% of control), CellTiter-Glo; higher = more viable cells (100 = DMSO, 0 = benzethonium chloride kill control)
Summary of the method: (§1)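 Every value is a normalised signal taken at one concentration of a dilution series. Compound was placed in 384-well plates at 5 concentrations in 10-fold steps over a compound-specific 10,000-fold range, and 20 µl of breast cancer cell suspension was seeded onto it. After 72 h, CellTox Green fluorescence (485/520 nm) was measured first and CellTiter-Glo luminescence second, following 10 min at room temperature. Each plate was scaled to 0.1 % DMSO (100) and a positive kill control (0).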

[2] = test system: MDA-MB-468; assay: as above
Summary of the method: as §1

[3] = test system: HDQ-P1; assay: as above
Summary of the method: as §1

[4] = test system: MFM-223; assay: as above
Summary of the method: as §1

[5] = test system: BT-549; assay: as above
Summary of the method: as §1

[6] = test system: CAL-120; assay: as above
Summary of the method: as §1

[7] = test system: Hs578T; assay: as above
Summary of the method: as §1

[8] = test system: SK-BR-3; assay: as above
Summary of the method: as §1

[9] = test system: CAL-85-1; assay: as above
Summary of the method: as §1

[10] = test system: HCC1143; assay: as above
Summary of the method: as §1

[11] = test system: MDA-MB-453; assay: as above
Summary of the method: as §1

[12] = test system: DU-4475; assay: as above
Summary of the method: as §1

[13] = test system: HCC1599; assay: as above
Summary of the method: as §1

[14] = test system: MDA-MB-231; assay: as above
Summary of the method: as §1

[15] = test system: HCC1937; assay: as above
Summary of the method: as §1

[16] = test system: MDA-MB-436; assay: as above
Summary of the method: as §1

[17] = test system: BT-474; assay: as above
Summary of the method: as §1

[18] = test system: CAL-148; assay: as above
Summary of the method: as §1

[19] = test system: MCF-10A; assay: as above
Summary of the method: as §1

[20] = test system: CAL-51; assay: normalised viability (% of control), CellTiter-Blue; higher = more viable cells (100 = DMSO, 0 = benzethonium chloride kill control)
Method: (§2)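 DSRT, CellTiter-Blue viability, 72 h incubation. Signal is normalised to DMSO and benzethonium chloride controls. Value is the normalised response at dose 1.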

[21] = test system: MDA-MB-468; assay: as above
Method: as §2

[22] = test system: HDQ-P1; assay: as above
Method: as §2

[23] = test system: MFM-223; assay: as above
Method: as §2

[24] = test system: BT-549; assay: as above
Method: as §2

[25] = test system: CAL-120; assay: as above
Method: as §2

[26] = test system: Hs578T; assay: as above
Method: as §2

[27] = test system: SK-BR-3; assay: as above
Method: as §2

[28] = test system: CAL-85-1; assay: as above
Method: as §2

[29] = test system: HCC1143; assay: as above
Method: as §2

[30] = test system: MDA-MB-453; assay: as above
Method: as §2

[31] = test system: DU-4475; assay: as above
Method: as §2

[32] = test system: HCC1599; assay: as above
Method: as §2

[33] = test system: MDA-MB-231; assay: as above
Method: as §2

[34] = test system: HCC1937; assay: as above
Method: as §2

[35] = test system: MDA-MB-436; assay: as above
Method: as §2

[36] = test system: BT-474; assay: as above
Method: as §2

[37] = test system: CAL-148; assay: as above
Method: as §2

SMILES	normalised response [1] [%]	normalised response [2] [%]	normalised response [3] [%]	normalised response [4] [%]	normalised response [5] [%]	normalised response [6] [%]	normalised response [7] [%]	normalised response [8] [%]	normalised response [9] [%]	normalised response [10] [%]	normalised response [11] [%]	normalised response [12] [%]	normalised response [13] [%]	normalised response [14] [%]	normalised response [15] [%]	normalised response [16] [%]	normalised response [17] [%]	normalised response [18] [%]	normalised response [19] [%]	normalised viability [20] [%]	normalised viability [21] [%]	normalised viability [22] [%]	normalised viability [23] [%]	normalised viability [24] [%]	normalised viability [25] [%]	normalised viability [26] [%]	normalised viability [27] [%]	normalised viability [28] [%]	normalised viability [29] [%]	normalised viability [30] [%]	normalised viability [31] [%]	normalised viability [32] [%]	normalised viability [33] [%]	normalised viability [34] [%]	normalised viability [35] [%]	normalised viability [36] [%]	normalised viability [37] [%]
CN(N=O)C(=O)N[C@@H](C=O)[C@@H](O)[C@H](O)[C@H](O)CO [Streptozocin] (1 nM)	80.8	97.5	104	105	102	103	106	106	94.2	105	92.1	95.7	96.4	108	104	104	98.8	102	113	110	102	116	92.8	102	101	103	106	91.4	99	111	104	132	106	99.1	100	81	111
Cn1c(Nc2ccc(C(F)(F)F)cc2)nc2cc(Oc3ccnc(-c4ncc(C(F)(F)F)[nH]4)c3)ccc21 [RAF265] (0.1 nM)	73.6	102	103	108	104	99	106	110	102	106	118	107	112	103	102	104	107	110	107	94.2	104	80.2	96	117	86.2	111	89.5	87.7	104	103	105	119	117	99	104	102	95.6
C=C(c1ccc(C(=O)O)cc1)c1cc2c(cc1C)C(C)(C)CCC2(C)C [Bexarotene] (1 nM)	105	109	102	97.5	103	99.6	93.2	102	99.7	99.7	111	99.6	98.9	107	100	89.5	103	107	99.8	94.1	105	84.7	99.6	88.7	115	111	94.8	102	110	83.5	82.5	101	86.1	108	82.5	81.1	105
CC1(C)NC(=O)N(c2ccc([N+](=O)[O-])c(C(F)(F)F)c2)C1=O [Nilutamide] (1 nM)	93.2	106	101	103	103	99.1	101	111	100	101	105	105	109	97.4	98.4	102	108	111	106	100	108	125	100	95.1	86.6	126	99.1	96	99.5	112	115	85.1	131	114	123	95.7	103
